In the METLIN SMRT retention time set (Domingo-Almenara et al. 2019):

Assay: gradient 5% acetonitrile 3 min, to 50% in 2 min, to 85% in 15 min, held 3 min, 100 µL/min
Details: column: Zorbax Extend-C18 2.1 x 50 mm; eluents: water / acetonitrile, 0.1% formic acid
Method in brief: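 Standards, all pure, were combined into mixtures of ~100 molecules and run at 100 μL/min on a Zorbax Extend-C18 column (2.1 × 50 mm, 1.8 μm) with water and acetonitrile, each containing 0.1% formic acid. A coupled quadrupole time-of-flight mass spectrometer operated in positive and negative ionization mode. Retention time values come from computationally picked adduct peaks, each inspected manually.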

With Cc1ccc(NS(=O)(=O)c2cc(-c3[nH]ncc3C(=O)N(C)C)oc2C)cc1Cl the RP-LC retention time was 730 s.
CN(C)CCNC(=O)c1nc(N2CCSCC2)c2cnn(C)c2n1 gave an RP-LC retention time of 560 s.
Cc1noc(C2CN(C(=O)Nc3cccc(F)c3C)CC23CCOCC3)n1 (stereo not given) showed an RP-LC retention time of 1030 s.
For O=C(Nc1cccnc1)C1(CCO)CCN(c2ncccn2)C1 (stereo not given), the RP-LC retention time was 529 s.
CCOC(=O)C1=C(C)N(CC(=O)NC(C)CC)c2ncnn2C1c1ccc(C)cc1 (stereo not given) gave an RP-LC retention time of 910 s.
Molecule O=C(C1CC(=O)N(c2n[nH]c3cccc(F)c23)C1)N1CCN(c2cccc(Cl)c2)CC1 (stereo not given) has an RP-LC retention time of 837 s.
For O=C(NC1CCCC1)C1CCN(C(=O)N2CCOc3ccc(Cl)cc32)CC1, the RP-LC retention time was 841 s.
For Cc1nc2cc(-c3noc(C4CC(=O)N(c5ccccc5)C4)n3)ccc2n(C2CCCC2)c1=O (stereo not given), the RP-LC retention time was 1030 s.
In the case of CCc1nc2cc3c(cc2n1CC(=O)NC(C)c1ccc2c(c1)OCCCO2)OCCO3 (stereo not given), the RP-LC retention time is reported as 628 s.
With COc1ncc(C(=O)NCc2ccc(C(F)(F)F)cc2)cn1 the RP-LC retention time was 773 s.
For CC(C)c1nnc2n1CCN(C(=O)COc1ccc(Cl)cc1)C2, the RP-LC retention time was 692 s.
COc1ccc2c(c1)C1(CCN(C(=O)c3ccc(C#N)cc3)C1)C(=O)N2 (stereo not given) showed an RP-LC retention time of 762 s.
Cc1cccc(CNC(=O)CCc2nc3c(C)cccc3c(=O)n2C)c1 showed an RP-LC retention time of 845 s.
Molecule Cc1ccc(C)c(N2C(=O)CN(S(=O)(=O)c3ccccc3)CC2(C)C(=O)NC2CCCC2)c1 (stereo not given) has an RP-LC retention time of 991 s.
In the case of CCCNc1cc(N2CCC(CCC(=O)N3CCN(c4ccccc4)CC3)CC2)ncn1, the RP-LC retention time is reported as 603 s.
CC(=O)N1CCc2cc(C(=O)N3CCCCCC3)ccc21 gave an RP-LC retention time of 723 s.
For COc1ccc(NC(=O)N2CCN(Cc3nc4ccccc4o3)CC2)cc1, the RP-LC retention time was 642 s.
Cc1ccc(-c2nc3nc(C)cc(C)n3c2Nc2ccccc2)cc1 gave an RP-LC retention time of 726 s.
Work on CC1Oc2ccc(-c3csc(NC(=O)c4ccco4)n3)cc2NC1=O (stereo not given) yielded an RP-LC retention time of 783 s.
With COC(=O)c1ccccc1NC(=O)C1CCCN(c2nnc(C)c3c(C)n(-c4ccccc4)nc23)C1 (stereo not given) the RP-LC retention time was 834 s.
Molecule Cc1ccccc1CC(=O)N1CCCC(COc2cccc(C(=O)NC3CC3)c2)C1 (stereo not given) has an RP-LC retention time of 861 s.
CN1C(=O)c2cc(C(=O)N3CCC(C(N)=O)CC3)nn2CC1(C)C(=O)NC1CCCCCC1 (stereo not given) gave an RP-LC retention time of 956 s.
With CC1CCN(S(=O)(=O)c2ccc3nn(Cc4cc(F)cc(F)c4)c(=O)n3c2)CC1 the RP-LC retention time was 1040 s.
Molecule CCCCNC(=O)Cc1nnc(-c2ccc(OC)cc2)o1 has an RP-LC retention time of 736 s.
With Cc1nncn1C1CN(C(=O)c2ccc(OC(F)(F)F)cc2)C1 the RP-LC retention time was 654 s.
With COCC1CN(Cc2cn[nH]c2-c2ccc(OC)cc2)CCC1(F)F (stereo not given) the RP-LC retention time was 624 s.
Work on O=C(Cc1ccccc1)Nc1nnc(CCSCCc2nnc(NC(=O)Cc3ccccc3)s2)s1 yielded an RP-LC retention time of 933 s.
Molecule Cc1nc(-c2cn(C(C)C)c3ncccc23)sc1C(=O)N1CCN(C)CC1 has an RP-LC retention time of 611 s.
In the case of CCn1cc(C)c(C(=O)O)c1CC(=O)N1CCc2ccccc21, the RP-LC retention time is reported as 815 s.
In the case of CCCn1cc(CCNC(=O)Nc2ccc(F)cc2F)c2cccnc21, the RP-LC retention time is reported as 806 s.
For Cc1cc(C(=O)N2CC(c3nc(-c4ccccn4)no3)C2)no1, the RP-LC retention time was 639 s.
Molecule O=C(NCCN1CCOCC1)c1cc2cc(Cl)ccc2o1 has an RP-LC retention time of 558 s.
Work on CCc1cc(=O)n(CC(=O)Nc2cc(F)cc(F)c2)c(N2CCOCC2)n1 yielded an RP-LC retention time of 802 s.
In the case of O=C(c1cnccn1)N1CCC2(CC1)CC(OCC1CC1)CCO2 (stereo not given), the RP-LC retention time is reported as 694 s.
Work on O=S(=O)(c1ccc(Cl)cc1)N1CCN(c2ccnc3cc(Cl)ccc23)CC1 yielded an RP-LC retention time of 758 s.
With COc1ccc(CNC(=O)c2cn(C)c3ncccc23)cc1 the RP-LC retention time was 711 s.
Cc1ccc(N(C)C(=O)C2CCN(S(=O)(=O)c3ccc(-c4noc(C5CC5)n4)cc3)CC2)cc1 gave an RP-LC retention time of 1100 s.
For COc1ccc(C)cc1NC(=O)Cn1nc2nc(Nc3ccc(C)cc3)ccn2c1=O, the RP-LC retention time was 862 s.
Molecule CCn1c(=O)c(C(=O)NCc2ccc(C)cc2)nc2cccnc21 has an RP-LC retention time of 781 s.
In the case of Cc1cccc(-c2noc(-c3nn(CC(=O)N4CCCC4)c4ccccc34)n2)c1, the RP-LC retention time is reported as 1080 s.
Work on CCc1ccc(NC(=O)N2CCC(n3cnnc3C3CC3)C2)cc1 (stereo not given) yielded an RP-LC retention time of 665 s.
In the case of COc1cc(NC(=O)C(C)Oc2ccc(=O)n(-c3ccc(F)cc3)n2)cc(OC)c1OC (stereo not given), the RP-LC retention time is reported as 719 s.
With CCN1CCn2c(nc3cc(C(=O)NCc4ccc(Br)cc4)ccc32)C1=O the RP-LC retention time was 704 s.
With CCOC(=O)c1[nH]c(C)c(CCC(=O)N2CCC(C(=O)NCc3ccc(OC(C)C)cc3)CC2)c1C the RP-LC retention time was 850 s.
Molecule CCOC(=O)C1CCN(C(=O)CCC(=O)N2CCCn3nc(-c4cn(C)c5ccccc45)cc32)CC1 has an RP-LC retention time of 798 s.
For O=C(c1nnc(-c2ccc(S(=O)(=O)N3CCCCC3)cc2)o1)N1CCN(c2ccccc2F)CC1, the RP-LC retention time was 1130 s.
Work on CCn1c(=O)c(N2CCCC(C(=O)NC3CCN(Cc4ccccc4)CC3)C2)nc2ccccc21 (stereo not given) yielded an RP-LC retention time of 685 s.
CN1CCC(Oc2ncccc2NS(=O)(=O)N(C)C)CC1 showed an RP-LC retention time of 575 s.
For CC(C)CNC(=O)NC(c1ccccc1)c1nnc(-c2ccccc2Cl)o1 (stereo not given), the RP-LC retention time was 898 s.
Molecule Cc1ccc(-c2nccn3cc(C(=O)O)nc23)cc1 has an RP-LC retention time of 696 s.
For O=C(c1nnc(-c2ccc(S(=O)(=O)N3CCOCC3)cc2)o1)N1CCCCC1, the RP-LC retention time was 785 s.
Molecule CCOC(=O)c1c(N2C(=O)CC(Sc3ccccc3C(=O)O)C2=O)sc(C)c1C (stereo not given) has an RP-LC retention time of 821 s.
For CC(NC(=O)C1CCN(S(=O)(=O)c2ccc(C#N)cc2)CC1)C(=O)N1CCCc2ccccc21 (stereo not given), the RP-LC retention time was 690 s.
Molecule CCc1noc(NC(C)=O)c1-c1ccc(C)c(S(=O)(=O)NC2CC2)c1 has an RP-LC retention time of 728 s.
For O=C(NCc1ccc(F)cc1)Nc1ccc2c(c1)CCN2S(=O)(=O)c1ccccc1, the RP-LC retention time was 904 s.
Molecule Cc1oc(C(C)C)nc1C(=O)NCc1ccncc1 has an RP-LC retention time of 590 s.
CC(NC(=O)c1ccncc1)C(=O)Nc1nc2ccccc2[nH]1 (stereo not given) showed an RP-LC retention time of 566 s.
CCc1ccc(-c2cc3c(=O)n(CC(O)c4ccccc4OC)ccn3n2)cc1 (stereo not given) showed an RP-LC retention time of 790 s.
For Cc1ccnc(N2CCC(C(=O)NCCCN3CCCc4ccccc43)CC2)n1, the RP-LC retention time was 665 s.
With O=C(Cn1cccc1-c1nnc(-c2ccccc2)o1)Nc1cccc(Cl)c1 the RP-LC retention time was 1050 s.
Work on COCc1nc2cccnc2n1C1CCN(C(=O)Nc2cccc(Br)c2)CC1 yielded an RP-LC retention time of 768 s.
With O=C(c1ccc(F)c(F)c1)N1CCC2(CC1)NC(=O)N(Cc1ccc(F)cc1)C2=O the RP-LC retention time was 830 s.
Molecule COc1ccc(S(=O)(=O)NCCc2c[nH]c3ccc(F)cc23)cc1 has an RP-LC retention time of 866 s.
Cc1ccc(S(=O)(=O)N2CCC3(CC2)CC(C)(O)CCO3)cc1Cl (stereo not given) showed an RP-LC retention time of 888 s.
COc1ccccc1C1(CNC(=O)Cc2cn(C)c3ccccc23)CCOCC1 gave an RP-LC retention time of 815 s.
In the case of CN(C)S(=O)(=O)c1ccc(NC(=O)Cc2ccc(F)cc2)cc1, the RP-LC retention time is reported as 780 s.
COC(=O)CCNC(=O)c1cc2c(=O)n(CC(C)C)c3ccccc3n2n1 gave an RP-LC retention time of 828 s.
In the case of Cc1ccc2[nH]cc(CCN3CC(C(=O)Nc4ccc(Br)cc4)CC3=O)c2c1 (stereo not given), the RP-LC retention time is reported as 916 s.
In the case of CN(CC1CCOCC1)S(=O)(=O)c1cccc(C(F)(F)F)c1, the RP-LC retention time is reported as 906 s.
Cc1ccc(S(=O)(=O)N2CC(=O)N(CCC(C)C)C(C)(C(=O)NCc3ccccc3)C2)cc1 (stereo not given) showed an RP-LC retention time of 1040 s.
In the case of Cc1ccc2ncn(C3CCN(C(=O)Nc4ccccc4)CC3)c(=O)c2c1, the RP-LC retention time is reported as 751 s.
Molecule Cc1noc(C2(NC(=O)c3sccc3C)CCCCC2)n1 has an RP-LC retention time of 882 s.
O=C(O)c1cc2ccccc2cc1Nc1ccccc1 gave an RP-LC retention time of 1140 s.
For O=C(Nc1cccc(-c2ccc3nnc(-c4cccs4)n3n2)c1)C1CCCC1, the RP-LC retention time was 792 s.
CC(C)CNC(=O)NC(C(=O)N1CCc2ccccc21)c1ccccc1 (stereo not given) showed an RP-LC retention time of 864 s.
With CN(c1ccccc1CNc1nc(Nc2ccc3c(c2)CC(=O)N3)ncc1C(F)(F)F)S(C)(=O)=O the RP-LC retention time was 713 s.
O=C(NC1CC1)C1CC(=O)N(c2ccc3c(c2)CCN3C(=O)C2CC2)C1 (stereo not given) gave an RP-LC retention time of 630 s.
Molecule CN(C)C(CNC(=O)c1cc(-c2ccc(Cl)cc2)on1)c1cccs1 (stereo not given) has an RP-LC retention time of 728 s.
CCCOc1ccc2nc(NC(=O)OC)[nH]c2c1 gave an RP-LC retention time of 652 s.
With O=C(Cc1ccc(NC(=O)c2ccc(F)c(F)c2)cc1)NC1CC1 the RP-LC retention time was 686 s.
CSc1ccc(CNC(=O)CN2CCc3[nH]c4c(C)cc(F)cc4c(=O)c3C2)cc1 gave an RP-LC retention time of 638 s.
COc1cc(NS(=O)(=O)c2c[nH]c3ncccc23)cc(OC)c1 gave an RP-LC retention time of 707 s.
In the case of CC(NC(=O)Nc1ccc(Br)cc1)C(=O)N1CCc2ccccc21 (stereo not given), the RP-LC retention time is reported as 941 s.
O=C(NCCC1=CCCCC1)C1CCCN(C(=O)Cc2cccc3ccccc23)C1 (stereo not given) showed an RP-LC retention time of 1030 s.
CC(C)(C)CC(C)(C)NCC(O)COC(C)(C)C (stereo not given) showed an RP-LC retention time of 588 s.
In the case of CCOC(=O)c1noc2ncnc(Nc3cc(C)ccc3OC)c12, the RP-LC retention time is reported as 1060 s.
In the case of COc1ccc(Cl)cc1NC(=O)Cn1cccc1-c1nnc(C2CC2)o1, the RP-LC retention time is reported as 972 s.
With O=C(NCc1ccccc1)c1c(O)c2cccnc2[nH]c1=O the RP-LC retention time was 913 s.
With COc1ccccc1OC(C)C(=O)N(Cc1ccc(C)o1)C1CCS(=O)(=O)C1 (stereo not given) the RP-LC retention time was 847 s.
Molecule CC(O)c1nc2ccccc2n1CC(=O)N(c1ccccc1)C(C)C (stereo not given) has an RP-LC retention time of 647 s.
